This is an account of results in patent publication US11452752B2, “Composition for antioxidation, anti-inflammation, or osteoclast differentiation inhibition” (NATURAL ENDOTECH CO., LTD., priority 2017, dated 2022).

The test system of assay [1] is nitric oxide (NO) production in RAW264.7 cells. Put plainly: Nitric oxide (NO) production inhibition, GRIESS assay, LPS-stimulated cells. The following applies: 12.5 μM; 500 ng/mL LPS, 24 hours. It is filed as cell-based. The procedure:
After the incubation, 100 μL of the supernatant was taken and transferred into a 96-well plate, and 100 μL of GRIESS solution was added, followed by incubation for 10 minutes. Thereafter, the absorbance was measured at 540 nm using a microplate reader to determine the NO production inhibitory effect.

Assay [2] relates to osteoclast differentiation of Raw 264.7 cells. Put plainly: RANKL-induced osteoclast differentiation inhibition (osteoclast count). The class given is cell-based. As to conditions: Mus musculus, RAW264.7, 96 h; 10 mM; 50 ng/mL RANKL, 4 days; read-out: osteoclast differentiation inhibitory effect. As for the experimental part: The media were removed after the incubation, followed by washing with PBS, and then the cells were fixed and stained using a leukocyte acid phosphatase kit (Sigma). After the staining, the osteoclasts were counted using a microscope, and the osteoclast count in a sample was expressed as a percentage relative to the control.

As for `Cc1ccc(-c2cc(C(F)(F)F)nn2-c2ccc(S(N)(=O)=O)cc2)cc1` [celecoxib], the NO production in assay [1] was 46.7%.

`NCCCC(O)(P(=O)(O)O)P(=O)(O)O` [alendronate]: in assay [2], the inhibition at 10000 µM worked out at 72.2%.
